The source made the active and inactive calls. The rule behind the calls is not given here.
Assays:
MGC-803 [1] = assay: Inhibition of cell proliferation in human MGC-803 cells at 2 to 50 uM by MTT assay; assay type: functional, cell-based; settings: dose 2-50 µM, time 24-72 hrs, TDE = time-dependent effect
PC-3 [2] = assay: Inhibition of cell proliferation in human PC-3 cells incubated for 72 hrs by MTT assay; assay type: functional, cell-based; settings: PC-3, 72 h
MGC-803 [3] = assay: Inhibition of colony formation in human MGC-803 cells incubated for 10 days by crystal violet staining based inverted microscopic analysis; assay type: functional, cell-based; settings: dose 1-3 µM, time 10.0 day
PC-3 [4] = assay: Inhibition of colony formation in human PC-3 cells at 3 uM incubated for 10 days by crystal violet staining based inverted microscopic analysis; assay type: functional, cell-based; settings: time 10.0 day
PC-3 [5] = assay: Inhibition of DNA synthesis in human PC-3 cells incubated for 24 hrs by EdU staining based fluorescence microscopic analysis; assay type: functional, cell-based
MGC-803 [6] = assay: Inhibition of cell invasion in human MGC-803 cells incubated for 48 hrs by […]; assay type: functional, cell-based; settings: dose 2.5-7.5 µM
MGC-803 [7] = assay: Inhibition of cell migration in human MGC-803 cells incubated for 48 hrs by wound healing assay; assay type: functional, cell-based; settings: dose 2.5-7.5 µM
PC-3 [8] = assay: Inhibition of cell invasion in human PC-3 cells incubated for 48 hrs by […]; assay type: functional, cell-based; settings: dose 2.5-7.5 µM
PC-3 [9] = assay: Inhibition of cell migration in human PC-3 cells incubated for 48 hrs by wound healing assay; assay type: functional, cell-based; settings: dose 2.5-7.5 µM
PC-3 [10] = assay: Induction of cell cycle arrest in human PC-3 cells assessed as cells at G0/G1 phase at 5 uM incubated for 36 hrs by PI staining based flow cytometry (reference value: 54.5%); assay type: functional
PC-3 [11] = assay: Induction of cell cycle arrest in human PC-3 cells assessed as cells at G2/M phase at 7.5 uM incubated for 36 hrs by PI staining based flow cytometry (reference value: 21.3%); assay type: functional
PC-3 [12] = assay: Induction of cell cycle arrest in human PC-3 cells assessed as cells at S phase at 15 uM incubated for 36 hrs by PI staining based flow cytometry (reference value: 22.8%); assay type: functional
PC-3 [13] = assay: Induction of cell cycle arrest in human PC-3 cells assessed as cells at G2/M phase at 15 uM incubated for 36 hrs by PI staining based flow cytometry (reference value: 21.3%); assay type: functional
MGC-803 [14] = assay: Induction of cell cycle arrest in human MGC-803 cells assessed as cells at S phase at 5 uM incubated for 36 hrs by PI staining based flow cytometry (reference value: 18.2%); assay type: functional
MGC-803 [15] = assay: Induction of cell cycle arrest in human MGC-803 cells assessed as cells at G0/G1 phase at 7.5 uM incubated for 36 hrs by PI staining based flow cytometry (reference value: 57.1%); assay type: functional
MGC-803 [16] = assay: Induction of cell cycle arrest in human MGC-803 cells assessed as cells at G2/M phase at 7.5 uM incubated for 36 hrs by PI staining based flow cytometry (reference value: 20.6%); assay type: functional
PC-3 [17] = assay: Induction of cell cycle arrest in human PC-3 cells assessed as cells at G0/G1 phase at 15 uM incubated for 12 hrs by PI staining based flow cytometry (reference value: 55.1%); assay type: functional
PC-3 [18] = assay: Induction of cell cycle arrest in human PC-3 cells assessed as cells at S phase at 15 uM incubated for 12 hrs by PI staining based flow cytometry (reference value: 22.9%); assay type: functional
PC-3 [19] = assay: Induction of cell cycle arrest in human PC-3 cells assessed as cells at G0/G1 phase at 15 uM incubated for 48 hrs by PI staining based flow cytometry (reference value: 55.1%); assay type: functional
MGC-803 [20] = assay: Induction of cell cycle arrest in human MGC-803 cells assessed as cells at G0/G1 phase at 15 uM incubated for 12 hrs by PI staining based flow cytometry (reference value: 57.9%); assay type: functional
MGC-803 [21] = assay: Induction of cell cycle arrest in human MGC-803 cells assessed as cells at S phase at 15 uM incubated for 24 hrs by PI staining based flow cytometry (reference value: 19.6%); assay type: functional
MGC-803 [22] = assay: Induction of cell cycle arrest in human MGC-803 cells assessed as cells at G2/M phase at 15 uM incubated for 24 hrs by PI staining based flow cytometry (reference value: 20.8%); assay type: functional
MGC-803 [23] = assay: Induction of cell cycle arrest in human MGC-803 cells assessed as cells at S phase at 15 uM incubated for 48 hrs by PI staining based flow cytometry (reference value: 19.6%); assay type: functional
MGC-803 [24] = assay: Upregulation of p21 protein expression in human MGC-803 cells at 5 to 15 uM incubated for 48 hrs by Western blotting analysis; assay type: functional, cell-based; settings: dose 5-15 µM
PC-3 [25] = assay: Upregulation of p27 protein expression in human PC-3 cells at 5 to 15 uM incubated for 48 hrs by Western blotting analysis; assay type: functional, cell-based; settings: dose 5-15 µM
MGC-803 [26] = assay: Upregulation of p21 protein expression in human MGC-803 cells at 15 uM by Western blotting analysis; assay type: functional, cell-based; settings: time 6-48 hrs, TDE = time-dependent effect
MGC-803 [27] = assay: Upregulation of p27 protein expression in human MGC-803 cells at 15 uM by Western blotting analysis; assay type: functional, cell-based; settings: time 6-48 hrs, TDE = time-dependent effect
MGC-803 [28] = assay: Antitumor activity against human MGC-803 cells xenografted in IG dosed NOD-SCID mouse assessed as inhibition of tumor proliferation administered for 21 days; assay type: functional, organism-based; settings: dose 25-50 mg/kg, time 21.0 day
MGC-803 [29] = assay: Antitumor activity against human MGC-803 cells xenografted in NOD-SCID mouse assessed as tumor growth inhibition at 25 mg/kg, IG administered for 21 days; assay type: functional; settings: MGC-803, po, 504 h, time 21 day, read-out: TGI
MGC-803 [30] = assay: Antitumor activity against human MGC-803 cells xenografted in NOD-SCID mouse assessed as tumor growth inhibition at 50 mg/kg, IG administered for 21 days; assay type: functional; settings: MGC-803, po, 504 h, time 21 day, read-out: TGI
[31] = Toxicity against NOD-SCID mouse assessed as body weight loss at 25 to 50 mg/kg, IG administered for 21 days; assay type: organism-based; settings: in vivo, po, 504 h, dose 25-50 mg/kg, time 21 day
[32] = Toxicity against NOD-SCID mouse assessed as change in heart morphology at 25 to 50 mg/kg, IG administered for 21 days by H and E staining based assay; assay type: organism-based; settings: in vivo, po, 504 h, dose 25-50 mg/kg, time 21 day
[33] = Toxicity against NOD-SCID mouse assessed as change in spleen morphology at 25 to 50 mg/kg, IG administered for 21 days by H and E staining based assay; assay type: organism-based; settings: in vivo, po, 504 h, dose 25-50 mg/kg, time 21 day
[34] = Clearance in Sprague-Dawley rat at 1 mg/kg, iv measured upto 24 hrs by LC/MS-MS analysis; assay type: ADME, organism-based; settings: in vivo
[35] = Half-life in Sprague-Dawley rat at 1 mg/kg, iv measured upto 24 hrs by LC/MS-MS analysis; assay type: ADME, organism-based; settings: in vivo
[36] = Cmax in Sprague-Dawley rat at 50 mg/kg, po measured upto 24 hrs by LC/MS-MS analysis; assay type: ADME, organism-based; settings: in vivo
[37] = Half-life in Sprague-Dawley rat at 50 mg/kg, po measured upto 24 hrs by LC/MS-MS analysis; assay type: ADME, organism-based; settings: in vivo
[38] = AUCinfinity in Sprague-Dawley rat at 50 mg/kg, po measured upto 24 hrs by LC/MS-MS analysis; assay type: ADME, organism-based; settings: in vivo
[39] = MRT(infinity) in Sprague-Dawley rat at 50 mg/kg, po measured upto 24 hrs by LC/MS-MS analysis; assay type: ADME, organism-based; settings: in vivo

## COc1ccc(-c2cc(C)nc3nc(SCc4ccc(Br)cc4)nn23)c(OC)c1
MGC-803 [1]
  inhibition: Tde
PC-3 [2]
  IC50: 11.7 µM
MGC-803 [3]
  inhibition: Dose-Dependent Effect
PC-3 [4]
  inhibition: Active
PC-3 [5]
  inhibition: Dose-Dependent Effect
MGC-803 [6]
  inhibition: Dose-Dependent Effect
MGC-803 [7]
  inhibition: Dose-Dependent Effect
PC-3 [8]
  inhibition: Dose-Dependent Effect
PC-3 [9]
  inhibition: Dose-Dependent Effect
PC-3 [10]
  Activity: 46.9%
PC-3 [11]
  Activity: 21.9%
PC-3 [12]
  Activity: 44.3%
PC-3 [13]
  Activity: 16.3%
MGC-803 [14]
  Activity: 26.9%
MGC-803 [15]
  Activity: 45.1%
MGC-803 [16]
  Activity: 18.7%
PC-3 [17]
  Activity: 48.3%
PC-3 [18]
  Activity: 32.6%
PC-3 [19]
  Activity: 36.9%
MGC-803 [20]
  Activity: 44%
MGC-803 [21]
  Activity: 38.9%
MGC-803 [22]
  Activity: 16.1%
MGC-803 [23]
  Activity: 37.3%
MGC-803 [24]
  Activity: Active
PC-3 [25]
  Activity: Active
MGC-803 [26]
  Activity: Tde
MGC-803 [27]
  Activity: Tde
MGC-803 [28]
  Activity: Dose-Dependent Effect
MGC-803 [29]
  inhibition in vivo at 25 mg/kg: 50.9%
MGC-803 [30]
  inhibition in vivo at 50 mg/kg: 76.9%
[31]
  Activity: Non-Toxic
[32]
  Activity: Non-Toxic
[33]
  Activity: Non-Toxic
[34]
  CL: 24 mL/min/kg
[35]
  t1/2: 1.49 h
[36]
  Cmax: 168 ng/mL
[37]
  half-life: 9.1 h
[38]
  AUC(0-inf): 1070 ng·h/mL
[39]
  MRT inf: 10.2 h

Source: ChEMBL document CHEMBL5579901, “Discovery of Novel [1,2,4]Triazolo[1,5-a]pyrimidine Derivatives as Novel Potent S-Phase Kinase-Associated Protein 2 (SKP2) Inhibitors for the Treatment of Cancer” (J Med Chem, 2024)
